The results in this text go back to US10975094B2, “Heterocyclic compounds as RSV inhibitors” (Enanta Pharmaceuticals, Inc., priority 2018, dated 2021).

A value given as a limit tells only on which side of the number the result lay.

One experiment deals with Human RSV-A (“Long” strain). Description: RSV in vitro cytoprotection assay in HEp-2 cells (ATPlite read-out). In kind it is cell-based. To be noted: human respiratory syncytial virus, 96 h; HEp-2 cells, genotype A “Long” strain RSV, 4-day incubation, ATPlite; read-out: Human RSV-A (“Long” strain) EC50. The source says: RSV is a single stranded negative sense RNA virus that causes respiratory tract infections which can be dangerous to infants, the elderly, and immunosuppressed individuals. Currently there is no vaccine, and therapeutic options are both costly and of limited effectiveness. These approved treatments are Ribavirin, and Palivizumab/Synagis (a monoclonal antibody). RSV has two genotypes, A and B, which differ primarily in the structure of the virus' surface “G” attachment protein. Our current primary screen focuses on RSV-A and uses an in vitro cytoprotection assay where compounds are added in 2-fold dilutions to cells which are then subjected to fully replicative viral particles. Cell viability is measured several days later along with separate measurements of compound cytotoxicity. This report focuses on the results of our most recent screening of compounds.
HEp-2 cells, (originally derived from tumors grown in irradiated-cortisonised weanling rats that had been injected with epidermoid carcinoma tissue from a person's larynx, but later found to be indistinguishable from HeLa cells by PCR DNA analysis), were used for the culturing of genotype A, “Long” strain RSV. Flasks were inoculated with RSV and viral stocks were collected once cytopathic effect (CPE) was greater than 90%. Viral stocks in 25% sucrose media were snap frozen using liquid nitrogen to increase viral stability. Viral stock titers were quantified by tissue culture infectious dose 50% (TCID50) using 8,000 cells per well and 3-fold viral dilutions across a 96-well plate, cultured for 4 days.
Following extensive parameter testing, the final assay is run as follows: HEp-2 cells are seeded into the inner 60 wells of a 96-well plate at 8,000 cells per well in a volume of 50 μL using Growth Media (DMEM without phenol red, 1% L-Glut, 1% Penn/Strep, 1% nonessential amino acids, 10% FBS). 2-Fold serial dilutions of control and test compounds are added to the wells in duplicate in a total volume of 25 μL. Viral stock is then added to the wells in a volume of 25 μL, bringing the total volume of each well to 100 μL. Each 96-well plate has a control column of 6 wells with cells and virus but no compound (negative control, max CPE), a column with cells but no compound or virus (positive control, minimum CPE), and a column with no cells or virus or compound (background plate/reagent control). The control wells with cells but no virus are given an additional 25 μL of growth media containing an equal quantity of sucrose as those wells receiving the viral stock in order to keep consistent in media and volume conditions. The outer wells of the plate are filled with 125 μL of growth media to act as a thermal and evaporative moat around the test wells. Following a 4-day incubation period, the plates are read using ATPlite (50 μL added per well), which quantifies the amount of ATP (a measure of cell health) present in each well. Assay plates are read using the Envision luminometer. In parallel, cytotoxicity is examined on an additional 96-well plate treated in an identical manner, but substituting the 25 μL of viral stock for 25 μL of growth media. […] EC50 ranges are as follows: A<0.1 μM; B 0.1-0.5 μM; C>0.5 μM
(Cellular ATP, detected with luciferase, serves as a proxy for viable cell number.)
As to `Cc1cnc(N2CC3(CCOCC3)C2)c(C(=O)Nc2ccc(C(=O)N3CCc4cc(C(=O)c5nc6cc(F)ccc6[nH]5)sc4-c4ccc(F)cc43)cc2)c1` [Example 5], the EC50 (usually the concentration needed to bring the measured effect to its halfway point) is 100 to 500 nM. Turning to `Cc1cnc(N2CC3(CCOCC3)C2)c(C(=O)Nc2ccc(C(=O)N3CCc4cc(C(=O)c5ncc(C)[nH]5)sc4-c4ccc(F)cc43)cc2)c1` [Example 9], the EC50 was below 100 nM. Regarding `Cc1cnc(N2CC3(CCOCC3)C2)c(C(=O)Nc2ccc(C(=O)N3CCc4cc(C(=O)c5nc6ccccc6[nH]5)sc4-c4ccc(F)cc43)cc2)c1` [Example 8], the 50% effective concentration (EC50) is below 100 nM. Turning to `Cc1cnc(N2CC3(CCOCC3)C2)c(C(=O)Nc2ccc(C(=O)N3CCc4cc(C(=O)c5nc6c([nH]5)CCCC6)oc4-c4ccccc43)cc2)c1` [Example 17], the concentration giving a half-maximal response (EC50) is below 100 nM.

`Cc1cnc(N2CC3(CCOCC3)C2)c(C(=O)Nc2ccc(C(=O)N3CCc4cc(C(=O)c5nc6c(F)cccc6[nH]5)sc4-c4ncccc43)cc2)c1` [Example 26]: the EC50 is below 100 nM. As to `Cc1cnc(N2CC3(CCOCC3)C2)c(C(=O)Nc2ccc(C(=O)N3CCc4cc(C(=O)c5ncc6ccccn56)sc4-c4ccc(F)cc43)cc2)c1` [Example 29], the EC50 is below 100 nM. Consider `Cc1cnc(N2CC3(CCOCC3)C2)c(C(=O)Nc2ccc(C(=O)N3CCc4cc(C(=O)c5nc6c(C)cccc6[nH]5)sc4-c4ccc(F)cc43)cc2)c1` [Example 6], for which the concentration giving a half-maximal response (EC50) is below 100 nM.

`Cc1ccc(C(=O)Nc2ccc(C(=O)N3CCc4c(sc(C(=O)c5nccn5C)c4F)-c4ccccc43)cc2)c(N2CC3(CCOCC3)C2)n1` [Example 28]: the half-maximal effective concentration (EC50) is below 100 nM. `Cc1cnc(N2CC3(CCOCC3)C2)c(C(=O)Nc2ccc(C(=O)N3CCc4cc(C(=O)c5nc6ccccc6n5C)oc4-c4ccccc43)cc2)c1` [Example 18]: the concentration for a half-maximal effect (EC50) is below 100 nM. On the same count and under the same terms, the figure for `Cc1cnc(N2CC3(CCOCC3)C2)c(C(=O)Nc2ccc(C(=O)N3CCc4cc(C(=O)c5ncccc5C)sc4-c4ccccc43)cc2)c1` [Example 40] is 100 to 500 nM; for `Cc1ccc(C(=O)Nc2ccc(C(=O)N3CCc4c(sc(C(=O)c5nc6ccccc6[nH]5)c4F)-c4ccccc43)cc2)c(N2CC3(CCOCC3)C2)n1` [Example 27] it is above 500 nM; for `Cc1cnc(N2CC3(CCOCC3)C2)c(C(=O)Nc2ccc(C(=O)N3CCc4cc(C(=O)c5cc(C)n[nH]5)sc4-c4ccc(F)cc43)cc2)c1` [Example 35] it is below 100 nM. On the same count and under the same terms, the figure for `Cc1cnc(N2CC3(CCOCC3)C2)c(C(=O)Nc2ccc(C(=O)N3CCc4cc(C(=O)c5nc6ccccc6o5)sc4-c4ccc(F)cc43)cc2)c1` [Example 30] is below 100 nM; for `Cc1cnc(N2CC3(CCOCC3)C2)c(C(=O)Nc2ccc(C(=O)N3CCc4cc(C(=O)c5nccn5C)sc4-c4ncccc43)cc2)c1` [Example 19] it is below 100 nM; for `Cc1cnc(N2CC3(CCOCC3)C2)c(C(=O)Nc2ccc(C(=O)N3CCc4cc(C(=O)c5nnc(C)o5)sc4-c4ccc(F)cc43)cc2)c1` [Example 31] it is 100 to 500 nM.

As to `Cc1cnc(N2CC3(CCOCC3)C2)c(C(=O)Nc2ccc(C(=O)N3CCc4cc(C(=O)c5nc6ccccc6n5C)sc4-c4ccc(F)cc43)cc2)c1` [Example 2], the EC50 lay within 100 to 500 nM. The same measure, in the same setting: the figure for `Cc1cnc(N2CC3(CCOCC3)C2)c(C(=O)Nc2ccc(C(=O)N3CCc4cc(C(=O)c5nc6ccccc6[nH]5)sc4-c4ccccc43)cc2)c1` [Example 11] is below 100 nM; for `Cc1cnc(N2CC3(CCOCC3)C2)c(C(=O)Nc2ccc(C(=O)N3CCc4cc(C(=O)c5nc6c(C)cccc6[nH]5)oc4-c4ccccc43)cc2)c1` [Example 15] it is below 100 nM; for `Cc1cnc(N2CC3(CCOCC3)C2)c(C(=O)Nc2ccc(C(=O)N3CCc4cc(C(=O)c5nc(C(F)(F)F)c[nH]5)sc4-c4ccc(F)cc43)cc2)c1` [Example 33] it is below 100 nM. With `Cc1cnc(N2CC3(CCOCC3)C2)c(C(=O)Nc2ccc(C(=O)N3CCc4cc(C(=O)c5nccn5C)sc4-c4ccc(F)cc43)cc2)c1` [Example 1], the concentration for a half-maximal effect (EC50) is below 100 nM. Turning to `Cc1cnc(N2CC3(CCOCC3)C2)c(C(=O)Nc2ccc(C(=O)N3CCc4cc(C(=O)c5nc6c(C)cccc6[nH]5)sc4-c4ncccc43)cc2)c1` [Example 20], the 50% effective concentration (EC50) was above 500 nM. For the compound `Cc1cnc(N2CC3(CCOCC3)C2)c(C(=O)Nc2ccc(C(=O)N3CCc4cc(C(=O)c5nc6ccccc6[nH]5)oc4-c4ccccc43)cc2)c1` [Example 12], the EC50 was below 100 nM. Still for that read-out and setting: the figure for `Cc1cnc(N2CC3(CCOCC3)C2)c(C(=O)Nc2ccc(C(=O)N3CCc4cc(C(=O)c5nc(C)c(C)[nH]5)oc4-c4ccccc43)cc2)c1` [Example 13] is below 100 nM; for `Cc1cnc(N2CC3(CCOCC3)C2)c(C(=O)Nc2ccc(C(=O)N3CCc4cc(C(=O)c5ncc(C)[nH]5)oc4-c4ccccc43)cc2)c1` [Example 14] it is below 100 nM; for `Cc1cnc(N2CC3(CCOCC3)C2)c(C(=O)Nc2ccc(C(=O)N3CCc4cc(C(=O)c5cc(C(F)(F)F)n[nH]5)sc4-c4ccc(F)cc43)cc2)c1` [Example 34] it is 100 to 500 nM. On the same count and under the same terms, the figure for `Cc1cnc(N2CC3(CCOCC3)C2)c(C(=O)Nc2ccc(C(=O)N3CCc4cc(C(=O)c5nc6ccccc6n5C)sc4-c4ncccc43)cc2)c1` [Example 25] is 100 to 500 nM; for `Cc1cnc(N2CC3(CCOCC3)C2)c(C(=O)Nc2ccc(C(=O)N3CCc4cc(C(=O)c5nc6c(F)cccc6[nH]5)sc4-c4ccc(F)cc43)cc2)c1` [Example 7] it is below 100 nM; for `Cc1cnc(N2CC3(CCOCC3)C2)c(C(=O)Nc2ccc(C(=O)N3CCc4cc(C(=O)c5ccccc5F)sc4-c4ccccc43)cc2)c1` [Example 39] it is 100 to 500 nM. Turning to `Cc1cnc(N2CC3(CCOCC3)C2)c(C(=O)Nc2ccc(C(=O)N3CCc4cc(C(=O)c5nc6c([nH]5)CCC6)sc4-c4ncccc43)cc2)c1` [Example 24], the EC50 is below 100 nM. On the same count and under the same terms, the figure for `Cc1cnc(N2CC3(CCOCC3)C2)c(C(=O)Nc2ccc(C(=O)N3CCc4cc(C(=O)c5[nH]nnc5C)sc4-c4ccc(F)cc43)cc2)c1` [Example 36] is below 100 nM; for `Cc1cnc(N2CC3(CCOCC3)C2)c(C(=O)Nc2ccc(C(=O)N3CCc4cc(C(=O)c5nc(C)c(C)[nH]5)sc4-c4ccc(F)cc43)cc2)c1` [Example 4] it is below 100 nM; for `Cc1ccc(C(=O)Nc2ccc(C(=O)N3CCc4cc(C(=O)c5[nH]nnc5C)sc4-c4ccc(F)cc43)cc2)c(N2CC3(CCOCC3)C2)n1` [Example 37] it is 100 to 500 nM. Same read-out and setting: the figure for `Cc1cnc(N2CC3(CCOCC3)C2)c(C(=O)Nc2ccc(C(=O)N3CCc4cc(C(=O)c5ccccc5C)sc4-c4ccccc43)cc2)c1` [Example 38] is above 500 nM. `Cc1cnc(N2CC3(CCOCC3)C2)c(C(=O)Nc2ccc(C(=O)N3CCc4cc(C(=O)c5nc(C6CC6)c[nH]5)sc4-c4ccc(F)cc43)cc2)c1` [Example 10]: the 50% effective concentration (EC50) was in the range of 100 to 500 nM. For the compound `Cc1cnc(N2CC3(CCOCC3)C2)c(C(=O)Nc2ccc(C(=O)N3CCc4cc(C(=O)c5nc6ccccc6[nH]5)sc4-c4ncccc43)cc2)c1` [Example 21], the EC50 was below 100 nM. As for `Cc1cnc(N2CC3(CCOCC3)C2)c(C(=O)Nc2ccc(C(=O)N3CCc4cc(C(=O)c5nc6c(F)cccc6[nH]5)oc4-c4ccccc43)cc2)c1` [Example 16], the concentration for a half-maximal effect (EC50) was below 100 nM. Take `Cc1cnc(N2CC3(CCOCC3)C2)c(C(=O)Nc2ccc(C(=O)N3CCc4cc(C(=O)c5nc6c([nH]5)CCCC6)sc4-c4ncccc43)cc2)c1` [Example 23]: the EC50 was below 100 nM.

Turning to `Cc1cnc(N2CC3(CCOCC3)C2)c(C(=O)Nc2ccc(C(=O)N3CCc4cc(C(=O)c5nc6ncccc6[nH]5)sc4-c4ccc(F)cc43)cc2)c1` [Example 3], the EC50 is below 100 nM. Turning to `Cc1cnc(N2CC3(CCOCC3)C2)c(C(=O)Nc2ccc(C(=O)N3CCc4cc(C(=O)c5nc(C#N)c[nH]5)sc4-c4ccc(F)cc43)cc2)c1` [Example 32], the EC50 was below 100 nM.

Still in this experiment, the particulars now being: human respiratory syncytial virus, HEp-2.
For the compound `O=C(Nc1ccccc1F)N[C@H]1N=C(c2ccccc2)c2ccccc2NC1=O` [RSV-604, reference compound], the 50% effective concentration (EC50) was around 2400 nM.
